Key:
[1] = tested on: Wnt/β-catenin signaling pathway; assay: Topflash/Fopflash luciferase report assay in SW480 cells; type: cell-based; settings: 30 μM
Text: We synthesized derivatives 5–10 bearing 5-membered and 6-membered heterocyclic rings at the position 3′ or 4′ of the B phenyl ring. […] SW480 cells show higher Wnt activation compared to HCT116 cells.[28] […] In SW480 cells, compounds 5–10 were in the 1.75%(10)–7.32%(7) range of residual luciferase activity, except 6(28.46%), compared to 3(21.61%); in HCT116 cells, compounds 5–10 were in the 0.37%(7)–5.88%(5) range, compared to 3 (18.75%) (Table 1 and Figure 5).
Figure 5 Residual luciferase activity (%) by compounds 5–10 and reference compound 3 in SW480 cells (left panel) and HCT116 cells (right panel). Data are represented as the mean ± SD of three independent experiments, each performed in triplicate.
Briefly, the Topflash plasmid (Beyotime, Zhejiang, China) contains 7 TCF/LEF binding sites, while the Fopflash plasmid (Beyotime, Zhejiang, China) contains 6 mutated TCF/LEF binding sites, which are located in the upstream of the luciferase reporter. SW480 and HCT116 cell lines were cultured in 90% DMEM (HyClone, #SH30243.01) plus 10% fetal bovine serum (Gibco, #10270) and plasmocin (mpp-39-03, InvivoGen), respectively. The Topflash/Fopflash vector and plasmid pTK-renilla together were co-transfected to the cells. […] The Dual-Glo luciferase assay kit (Promega, #E1910) was used to measure the luminescence intensity (Figure 2).

[2] = tested on: HCC1937 cells; assay: Cell proliferation by live-cell imaging (IncuCyte), HCC1937 TNBC cells; type: cell-based; settings: 40 μM, 72 h
Method: As TNBC is a highly heterogeneous subgroup, including breast cancers with different molecular and phenotypic traits,[37] effects of compounds 5–10 on cell proliferation were also tested in additional TNBC cell lines, i.e., HCC1806 and HCC1937. As inhibitors of HCC1806 TNBC cells, compounds 5–10 were evaluated in parallel with compounds 3, ICG-001, and iCRT3 (Figures 10 and S12–S19, Supporting Information); as inhibitors of the HCC1937 TNBC cells, 5–10 were compared with 3 and iCRT3 (Figures 10, S20, and S21). Effects on cell proliferation were evaluated as above for the MDA-MB-231 TNBC cells at the latest time point of observation of 72 h.
Figure 10 Inhibition of MDA-MB-231, HCC1806, and HCC1937 TNBC cell growth by compounds 5–10 and reference compounds 3, […], and iCRT3 at 40 μM. Cell growth inhibition was quantified using the IncuCyte cell-by-cell analysis software, by comparison with the growth of DMSO-treated cells at 72 h, set at 100% (mean ± SD, n = 3, one-way ANOVA, **p ≤ 0.01, ****p ≤ 0.0001).
Cell proliferation of breast cancer cell lines upon continuous treatment with select compounds was evaluated by the real-time quantitative live-cell imaging system. MDA-MB-231 (1500 cells/well), HCC1806 (2000 cells/well), and HCC1937 (3000 cells/well) were seeded in 96-well plates, treated with increasing doses of selected compounds and images (5 images/well) were acquired every 8 h for 3 days at 10× magnification in an IncuCyte SX5 live-content imaging system (Essen Bioscience) at 37 °C with 5% CO2. Images were analyzed using IncuCyte cell-by-cell analysis software to detect and quantify live cells (phase-contrast). The number of cells at each time point was quantified using IncuCyte cell-by-cell analysis software, and cell growth was evaluated as the normalized ratio between counted cells at each time point normalized to those counted at time 0. Graph drawing and statistical analyses were performed in GraphPad Prism according to the statistical tests described in the figure legends.

Compound: O=S(=O)(Nc1ccc(-c2ccccn2)cc1)c1ccc(Br)cc1 [Compound 9, 4-Bromo-N-(4-(pyridin-2-yl)phenyl)benzenesulfonamide]
- % Luciferase Activity SW480 (residual) [1]: 8.75%
- effect on HCC1937 cell growth [2]: less effective

From article PMC10353061 (ACS Pharmacology & Translational Science, 2023)
